Patent US11278555B2, “Combinational therapies for treatment of cancer comprising a bacteriochlorophyll derivative” (Yeda Research and Development Co. Ltd., priority 2016, dated 2022)

System: splenic immune cells of 4T1-bearing mice
Experiment: FACS profile of splenic immune cell populations in 4T1-bearing mice after STL-6014 PDT and Gemzar
Format: in vivo
Procedure: • (i) Bacteriochlorophyll Derivatives—The Bchl derivatives and RGD-conjugates thereof were provided by Steba Biotech (Rehovot, Israel). […] Concentration was verified by spectrophotometric measurement. STL-7012 was provided as dipotassium salt. Working solution was prepared by dissolving STL-7012 K^+ salt in 5% mannitol solution (1 mg/ml). […] WST11 was supplied as a powder and kept in the dark at −20° C. Stock was prepared by dissolving WST11 in DDW containing 5% glucose and 0.67% mannitol, aliquoted and lyophilized. Working solution was reconstituted with DDW and the concentration of solution was confirmed spectrophotometrically. Alternatively, Clinical WST11 (batch: P00611, and 10-130611) was supplied as lyophilized formulation. Material was dissolved in 5% dextrose, aliquoted and stored at −20° C. At the day of treatment the aliquot was thawed, filtered and the concentration of solution was confirmed spectrophotometrically. • (ii) Chemotherapeutic drugs preparation and storage—Gemcitabine (GEM, Gemzar®, Lilly) was purchased from a local pharmacy as a powder, dissolved in saline to a concentration of 38 mg/ml, aliquoted and stored at −20° C. Aliquots were thawed, diluted with saline to a desired concentration and used on the same day at a dose of 75 mg/kg. Cyclophosphamide (CTX, Endoxan®, Baxter Oncology Gmbh, Germany) was purchased from a local pharmacy. A stock solution of 20 mg/ml was prepared by dissolving in 0.9% NaCl, aliquoted and stored at −20° C. Aliquots were thawed, diluted with saline if needed to a desired concentration and used on the same day prepared at indicated doses. • (iii) Murine cell lines—Mammary luciferase (luc)-labeled 4T1 cell line (4T1-Luc) was a kind gift from Dr. Zvi Granot (Faculty of Medicine, The Hebrew University of Jerusalem, Israel); melanoma B16-F10 cell line was obtained from the American Type Culture Collection (ATCC, Manassas, Va.); bladder MB49 cell line was a kind gift from James Allison (MSKCC, New York, USA), and luc-labeled MB49-cell line was established using the murine stem cell virus (MSCV)-puromycin-luc-GFP construct (kindly provided by Dr. Emily Cheng, Human Oncology and Pathogenesis Program, MSKCC). 4T1 and MB49 cells were maintained in DMEM medium and B16-F10 cells in RPMI medium supplemented with 1 mmol/L sodium pyruvate, 10% fetal calf serum (FCS), 250 μg/ml hygromycin, 0.06 mg/ml penicillin and 0.1 mg/ml streptomycin. The cells were grown as monolayer at 37° C. in a humidified atmosphere (5% CO2, 95% air). • (iv) Murine tumor models—Female, Balb/c mice (6-8 week old) were grafted either subcutaneously (s.c.) into the right hind leg or orthotopically with 1×10^6 4T1 cells suspended in 50 or 1000 PBS. For the rechallenge study, 2×10^5 4T1 cells were orthotopically grafted. For bladder cancer model, 5×10^4 of MB49 or MB49-luciferase cell line were s.c. injected into the right flank of C57B/6 male mice (7-8 weeks old, Taconic, Hudson, N.Y.) 15 days prior to VTP treatment. For the efficacy study of VTP in immune compromised mice, the same number of MB49 cells was injected in the flank of Rag^−/− on C57B/6 background or C57B/6 male mice (7-8 week old, Jackson Laboratory, Bar Harbor, Me.). […] Whole body imaging of luciferase-transfected tumors and metastases were recorded five minutes following 75 mg Kg^−1 intraperitoneal (i.p.) injection of D-luciferin with respective filter sets. • (vi) PDT treatment protocol: 4T1-Luc cells were grafted in the mammary pad of Balb/c mice. […]

## Nc1ccn([C@@H]2O[C@H](CO)[C@@H](O)C2(F)F)c(=O)n1 [Gemzar, Gemcitabine]
First week post treatment
  percentage of G-MDSC/neutrophils and M-MDSC in spleen compared to control: significantly reduced
mouse, in vivo
  effect on Treg populations in spleen compared with controls: Much smaller effects
Second week post treatment
  impact on MDSCs in spleen relative to control: diminished
